≈ marks a conversion by molar mass, not a printed value. Calls of active or inactive are those of the source. The calls are words filed in the database; no cut-off is given here.
Key:
[1] = test system: Hepacivirus hominis; experiment: Inhibition of HCV recombinant NS3 helicase at 100 uM
[2] = Cytotoxicity against human Huh5-2 cells by MTS assay; type: cell-based, Huh-5-2
[3] = test system: Hepatitis C virus; experiment: Antiviral activity against HCV in human Huh5-2 cells assessed as inhibition of HCV subgenomic replication; type: functional, organism-based, Hepacivirus hominis; details: Huh-5-2
[4] = Inhibition of HCV recombinant NS3 helicase; design: species or system Hepacivirus hominis

Compound	Activity [1]	CC50 [2]	EC50 [3]	IC50 [4]
COC(=O)c1ccc(CNC(=O)c2cc(/C=C/C(C)=O)c[nH]2)cc1	inactive			
COC(=O)c1ccc(CNC(=O)c2ccc(/C=C/C(C)=O)[nH]2)cc1		10 µg/mL (≈ 30.6 µM)	3 µg/mL (≈ 9.19 µM)	260 nM
